These results are taken from the Kinase Knowledgebase extract (Sharma et al. 2016).

SMILES strings stand for the structures. Some results are limits rather than exact numbers.

For orientation: IC50 means the concentration that gives 50% inhibition. A lower IC50 goes with greater potency in that assay.

Experiment [1] addresses EGFR (human), P00533 [L858R].
Experiment [2] deals with EGFR (Human), P00533 [T790M/L858R].
For experiment [3], the target named is EGFR (Human), P00533 [Assessment of EGFR-Del T790M Dependent Cell Proliferation in BaF3 Cells].
The next experiment deals with EGFR (human) (UniProt P00533).
EGFR (human), sequence (P00533 whole entry, looked up): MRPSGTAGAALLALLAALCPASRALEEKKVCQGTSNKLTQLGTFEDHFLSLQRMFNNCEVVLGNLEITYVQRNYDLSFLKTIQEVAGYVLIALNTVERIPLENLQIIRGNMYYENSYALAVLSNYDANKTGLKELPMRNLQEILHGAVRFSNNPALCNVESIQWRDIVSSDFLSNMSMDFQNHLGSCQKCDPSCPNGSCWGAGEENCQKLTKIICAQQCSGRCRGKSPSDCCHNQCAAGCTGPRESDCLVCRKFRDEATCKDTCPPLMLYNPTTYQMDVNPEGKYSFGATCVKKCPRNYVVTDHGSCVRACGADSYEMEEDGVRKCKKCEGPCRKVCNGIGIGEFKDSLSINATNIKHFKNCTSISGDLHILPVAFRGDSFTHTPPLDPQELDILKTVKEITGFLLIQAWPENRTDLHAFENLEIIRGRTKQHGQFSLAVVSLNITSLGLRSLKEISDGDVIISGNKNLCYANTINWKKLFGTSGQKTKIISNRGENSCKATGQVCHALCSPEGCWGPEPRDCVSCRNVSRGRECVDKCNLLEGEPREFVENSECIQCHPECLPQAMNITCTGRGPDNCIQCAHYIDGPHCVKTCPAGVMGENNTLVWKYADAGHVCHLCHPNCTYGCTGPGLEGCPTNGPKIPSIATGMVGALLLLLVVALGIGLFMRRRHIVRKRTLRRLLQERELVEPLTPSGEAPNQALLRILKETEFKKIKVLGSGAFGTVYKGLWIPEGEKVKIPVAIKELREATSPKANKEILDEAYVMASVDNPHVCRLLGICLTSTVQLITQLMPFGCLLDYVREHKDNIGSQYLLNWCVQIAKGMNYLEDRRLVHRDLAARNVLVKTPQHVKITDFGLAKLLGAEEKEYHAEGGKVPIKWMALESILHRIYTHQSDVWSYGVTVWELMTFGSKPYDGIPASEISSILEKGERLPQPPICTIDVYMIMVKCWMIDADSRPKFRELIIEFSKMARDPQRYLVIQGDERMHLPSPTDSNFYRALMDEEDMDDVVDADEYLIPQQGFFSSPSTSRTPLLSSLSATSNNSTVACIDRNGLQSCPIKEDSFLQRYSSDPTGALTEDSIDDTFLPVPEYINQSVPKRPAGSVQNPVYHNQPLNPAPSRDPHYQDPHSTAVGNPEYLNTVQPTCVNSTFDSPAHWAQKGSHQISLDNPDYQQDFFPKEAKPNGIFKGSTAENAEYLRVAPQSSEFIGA

EGFR (human), P00533 [L858R], sequence (P00533 whole entry L858R, looked up): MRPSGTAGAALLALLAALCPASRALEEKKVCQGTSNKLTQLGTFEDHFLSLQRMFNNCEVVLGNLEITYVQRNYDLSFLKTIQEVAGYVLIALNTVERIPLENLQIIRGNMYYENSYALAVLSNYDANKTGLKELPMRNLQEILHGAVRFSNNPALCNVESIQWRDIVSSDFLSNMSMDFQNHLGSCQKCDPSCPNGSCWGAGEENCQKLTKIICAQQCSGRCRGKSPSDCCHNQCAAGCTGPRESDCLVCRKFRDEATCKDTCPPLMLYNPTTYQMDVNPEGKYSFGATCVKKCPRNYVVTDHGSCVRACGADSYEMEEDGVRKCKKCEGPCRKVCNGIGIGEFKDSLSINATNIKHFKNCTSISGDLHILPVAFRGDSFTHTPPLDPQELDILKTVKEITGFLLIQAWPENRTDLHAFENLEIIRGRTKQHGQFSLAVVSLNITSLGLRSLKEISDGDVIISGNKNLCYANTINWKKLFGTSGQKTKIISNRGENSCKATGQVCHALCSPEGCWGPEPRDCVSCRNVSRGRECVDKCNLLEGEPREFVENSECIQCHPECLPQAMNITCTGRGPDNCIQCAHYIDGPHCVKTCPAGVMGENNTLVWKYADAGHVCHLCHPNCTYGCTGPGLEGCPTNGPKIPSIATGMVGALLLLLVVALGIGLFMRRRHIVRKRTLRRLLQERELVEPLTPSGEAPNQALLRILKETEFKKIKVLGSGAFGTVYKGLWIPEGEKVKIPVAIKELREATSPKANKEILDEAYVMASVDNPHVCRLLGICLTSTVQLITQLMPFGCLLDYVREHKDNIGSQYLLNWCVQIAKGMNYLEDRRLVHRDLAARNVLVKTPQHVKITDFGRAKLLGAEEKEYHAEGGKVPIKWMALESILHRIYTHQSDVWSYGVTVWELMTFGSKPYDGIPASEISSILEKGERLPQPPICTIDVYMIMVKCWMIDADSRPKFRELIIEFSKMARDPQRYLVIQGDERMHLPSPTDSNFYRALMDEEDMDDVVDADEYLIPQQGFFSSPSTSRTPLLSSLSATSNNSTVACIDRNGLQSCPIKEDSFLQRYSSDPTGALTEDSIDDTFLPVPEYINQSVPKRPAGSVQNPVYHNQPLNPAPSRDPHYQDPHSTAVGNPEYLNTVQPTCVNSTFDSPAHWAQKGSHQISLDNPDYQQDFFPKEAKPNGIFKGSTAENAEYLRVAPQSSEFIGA
EGFR (Human), P00533 [Assessment of EGFR-Del T790M Dependent Cell Proliferation in BaF3 Cells], sequence (P00533 whole entry, looked up, stated change not applied): as the sequence (P00533 whole entry, looked up) above
EGFR (Human), P00533 [T790M/L858R], sequence (P00533 whole entry T790M/L858R, looked up): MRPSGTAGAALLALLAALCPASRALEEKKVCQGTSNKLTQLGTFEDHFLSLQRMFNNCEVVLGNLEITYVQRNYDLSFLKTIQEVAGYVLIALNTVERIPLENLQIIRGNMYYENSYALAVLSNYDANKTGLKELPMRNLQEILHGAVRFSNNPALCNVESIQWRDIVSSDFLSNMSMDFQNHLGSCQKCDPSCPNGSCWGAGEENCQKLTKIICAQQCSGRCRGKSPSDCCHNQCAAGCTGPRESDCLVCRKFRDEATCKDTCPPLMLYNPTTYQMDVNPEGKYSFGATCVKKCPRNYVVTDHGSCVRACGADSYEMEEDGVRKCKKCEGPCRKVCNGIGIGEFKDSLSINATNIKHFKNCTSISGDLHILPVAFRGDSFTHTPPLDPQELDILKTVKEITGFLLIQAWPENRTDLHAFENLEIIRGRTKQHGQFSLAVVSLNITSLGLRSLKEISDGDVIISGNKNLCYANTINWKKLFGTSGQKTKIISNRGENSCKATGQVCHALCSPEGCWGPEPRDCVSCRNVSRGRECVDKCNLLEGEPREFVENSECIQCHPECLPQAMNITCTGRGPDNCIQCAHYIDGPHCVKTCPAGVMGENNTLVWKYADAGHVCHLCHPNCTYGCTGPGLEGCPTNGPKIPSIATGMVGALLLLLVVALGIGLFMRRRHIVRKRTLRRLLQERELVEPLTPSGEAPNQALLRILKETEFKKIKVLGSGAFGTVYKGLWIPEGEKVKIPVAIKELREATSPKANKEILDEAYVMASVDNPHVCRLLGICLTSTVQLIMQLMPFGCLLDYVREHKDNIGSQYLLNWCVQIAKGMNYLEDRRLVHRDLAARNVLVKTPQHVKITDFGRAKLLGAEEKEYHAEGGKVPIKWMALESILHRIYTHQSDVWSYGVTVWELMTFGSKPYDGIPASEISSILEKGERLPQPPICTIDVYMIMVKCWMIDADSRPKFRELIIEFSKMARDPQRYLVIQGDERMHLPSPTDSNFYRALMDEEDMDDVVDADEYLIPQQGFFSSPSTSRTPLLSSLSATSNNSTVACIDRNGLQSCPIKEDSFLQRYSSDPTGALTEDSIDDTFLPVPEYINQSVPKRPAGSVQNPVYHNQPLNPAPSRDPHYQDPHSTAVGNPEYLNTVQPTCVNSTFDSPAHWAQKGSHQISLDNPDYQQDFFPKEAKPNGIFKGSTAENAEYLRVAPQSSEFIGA

In the case of `C=CC(=O)Nc1ccc(OC)c(Nc2ncc(Cl)c(Nc3ccccc3P(C)(C)=O)n2)c1`, the IC50 in experiment [1] was less than 50 nM; in experiment [2] it was less than 50 nM; in experiment [3], 101 to 250 nM.
Regarding `C=CC(=O)Nc1cc(Nc2ncc(Cl)c(Nc3ccccc3P(C)(C)=O)n2)c(OC)cc1N1CCC(N2CCN(CCO)CC2)C1` (stereo not given), the IC50 (in experiment [1]; at EGFR (human); in experiment [2]) was less than 50 nM in each case.
Consider `C=CC(=O)Nc1cc(Nc2ncc(Cl)c(Nc3ccccc3P(C)(C)=O)n2)c(OC)cc1OCCN1CCN(C)CC1`, for which the figures for the IC50 (in experiment [1]; on EGFR (human); in experiment [2]) were less than 50 nM, 101 to 250 nM and less than 50 nM, respectively.
Regarding `C=CC(=O)Nc1cc(Cc2ncc(Cl)c(Nc3ccccc3P(C)(C)=O)n2)c(OC)cc1C#CCN1CCC(N(C)C)C1` (stereo not given), the IC50 in experiment [1] is less than 50 nM; on EGFR (human), 50 to 100 nM; in experiment [2], less than 50 nM.
In the case of `COc1ccc(NC(=O)/C=C/CN2CCCC2)cc1Nc1ncc(Cl)c(Nc2ccccc2P(C)(C)=O)n1`, the IC50 in experiment [1] is less than 50 nM; in experiment [2] it was less than 50 nM; in experiment [3], 50 to 100 nM.
For `COc1ccc(NC(=O)CF)cc1Nc1ncc(Cl)c(Nc2ccccc2P(C)(C)=O)n1`, the IC50 in experiment [1] is 50 to 100 nM; in experiment [2] it was 101 to 250 nM.
In turn, `COc1ccc(NC(=O)/C=C\C(=O)O)cc1Nc1ncc(Cl)c(Nc2ccccc2P(C)(C)=O)n1` showed an IC50 in experiment [2] of 101 to 250 nM.
In the case of `C=C(C(=O)Nc1ccc(OC)c(Nc2ncc(Cl)c(Nc3ccccc3P(C)(C)=O)n2)c1)C(F)(F)F`, the IC50 (in experiment [1]; against EGFR (human); in experiment [2]) was less than 50 nM throughout.
For `C=CC(=O)Nc1cc(Cc2ncc(Cl)c(Nc3ccccc3P(C)(C)=O)n2)c(OC)cc1C#CCN(C)C(C)(C)C`, the IC50 (in experiment [1]; against EGFR (human); in experiment [2]) was less than 50 nM in each case.
On to `COc1ccc(NC(=O)C2=CCCN(C)C2)cc1Nc1ncc(Cl)c(Nc2ccccc2P(C)(C)=O)n1`, for which the IC50 in experiment [1] and in experiment [2] was less than 50 nM each time.
With `C=CC(=O)Nc1cc(Nc2ncc(Cl)c(Nc3ccccc3P(C)(C)=O)n2)c(OC)cc1N1CCC(N)C1` (stereo not given), the IC50 (in experiment [1]; against EGFR (human); in experiment [2]) was less than 50 nM in each case.
In turn, `C=CC(=O)N1CCc2cc(Nc3ncc(Cl)c(Nc4ccccc4P(C)(C)=O)n3)c(OC)cc21` gave an IC50 in experiment [3] of 101 to 250 nM.
Turning to `COc1ccc(NC(=O)/C=C/C(=O)NCCN(C)C)cc1Nc1ncc(Cl)c(Nc2ccccc2P(C)(C)=O)n1`, the concentration for half-maximal inhibition (IC50) (in experiment [1]; against EGFR (human); in experiment [2]) was less than 50 nM each time.
Take `COc1ccc(NC(=O)/C=C\C(=O)N2CCN(C)CC2)cc1Nc1ncc(Cl)c(Nc2ccccc2P(C)(C)=O)n1`: the IC50 in experiment [1] lay within 101 to 250 nM.
For the molecule `C=CC(=O)Nc1cc(Cc2ncc(Cl)c(Nc3ccccc3P(C)(C)=O)n2)c(OC)cc1C#CCN1CCC(C)CC1`, the IC50 (in experiment [1]; on EGFR (human); in experiment [2]) was less than 50 nM in each case.
As for `COc1ccc(NC(=O)/C=C/C2(N)CC2)cc1Nc1ncc(Cl)c(Nc2ccccc2P(C)(C)=O)n1`, the IC50 in experiment [1] is less than 50 nM; against EGFR (human), 101 to 250 nM; in experiment [2] it was less than 50 nM.
As for `C=C(CN1CCS(=O)(=O)CC1)C(=O)Nc1ccc(OC)c(Nc2ncc(Cl)c(Nc3ccccc3P(C)(C)=O)n2)c1`, the IC50 was 50 to 100 nM in experiment [1] and less than 50 nM in experiment [2].
For `C=CC(=O)Nc1cc(Nc2ncc(Cl)c(Nc3ccccc3P(C)(C)=O)n2)c(OC)cc1C(=O)N1CCN(C)CC1`, the IC50 in experiment [1] is less than 50 nM; against EGFR (human) it was 101 to 250 nM; in experiment [2] it was less than 50 nM.
Regarding `COc1ccc(NC(=O)/C=C/C(=O)N(C)C)cc1Nc1ncc(Cl)c(Nc2ccccc2P(C)(C)=O)n1`, the IC50 in experiment [1] was 50 to 100 nM; in experiment [2], 101 to 250 nM.
Taken in the same sequence, the figures for `COc1ccc(NC(=O)/C=C\C(=O)NCCN(C)C)cc1Nc1ncc(Cl)c(Nc2ccccc2P(C)(C)=O)n1` were less than 50 nM and less than 50 nM.
On to `C=CC(=O)Nc1cc(Nc2ncc(Cl)c(Nc3ccccc3P(C)(C)=O)n2)c(OC)cc1OCC(CO)N(C)C` (stereo not given), for which, in experiment [3], the IC50 was in the range of 101 to 250 nM.
